Data on one compound can be found in PMC7794217, “A bi-specific lectin from the mushroom Boletopsis grisea and its application in glycoanalytical workflows” (Scientific Reports, 2021).

What all share (experiment): SPR (Biacore […]), equilibrium fit to […] model
Common to all, as to type: binding
(In general: SPR reads the build-up and loss of mass on a sensor chip optically.)

Assay [1] concerns the target T1, BGL (Boletopsis grisea lectin), recombinant wild-type rBGL (Boletopsis grisea, UniProt A0A1L2F5J1).
T1 construct: full-length 143 amino acid ORF (GenBank KT315924), expressed in E. coli, lacking N-terminal Met

Assay [2] concerns the target T2, BGL (Boletopsis grisea lectin), G49N mutant (Boletopsis grisea, UniProt A0A1L2F5J1, G49N).
T2 construct: full-length BGL ORF expressed in E. coli

Assay [3] addresses T3, BGL (Boletopsis grisea lectin), S48K mutant (Boletopsis grisea, UniProt A0A1L2F5J1, S48K).
T3 construct: full-length BGL ORF expressed in E. coli

For assay [4], the target named is T4, BGL (Boletopsis grisea lectin), H71E mutant (Boletopsis grisea, UniProt A0A1L2F5J1, H71E).
T4 construct: full-length BGL ORF expressed in E. coli
T4 sequence (A0A1L2F5J1 entry or part of it H71E): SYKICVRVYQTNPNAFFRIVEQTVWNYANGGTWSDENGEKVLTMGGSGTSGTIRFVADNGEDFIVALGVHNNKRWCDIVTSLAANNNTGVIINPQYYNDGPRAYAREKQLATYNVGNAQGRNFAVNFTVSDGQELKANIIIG

T3 sequence (A0A1L2F5J1 entry or part of it S48K): as the sequence (A0A1L2F5J1 entry or part of it H71E) above
T2 sequence (A0A1L2F5J1 entry or part of it G49N): as the sequence (A0A1L2F5J1 entry or part of it H71E) above
T1 sequence (A0A1L2F5J1 2-143): as the sequence (A0A1L2F5J1 entry or part of it H71E) above

`CC(=O)N[C@H]1C(O)O[C@H](CO)[C@@H](O)[C@@H]1O` (stereo partly shown) [GlcNAc]: the Kd is 1.086 ± 0.008 mM in assay [1], 0.91 ± 0.01 mM in assay [2], 1.01 ± 0.02 mM in assay [3] and 2.33 ± 0.08 mM in assay [4].

One may read the Kd as the constant that tells how readily two partners part at equilibrium.
